Assay results published in US7375086B2, “Modulators of Nod2 signaling” (The Regents of the University of Michigan, priority 2000, dated 2008).
Entries after “also recorded” stand apart in the source; their conditions may differ.

Assays:
NF-κB = NF-κB binding activity by EMSA in nuclear extracts of PBMNC; format: cell-based, human; conditions: 1 μg/ml LPS from Salmonella typhimurium, 10 ng/ml MDP, 1 hour; for response of PBMNC (NF-κB-DNA complex, EMSA): PBMNC from individuals homozygous for L1007fsinsC
Procedure: (§1) FIGS. 20C and D show PBMNC analyzed for expression of IL-1β (C) and A1 (D) transcripts by quantitative RT-PCR.
(§2) Genotyping was performed using a ddNTP primer extension system. Nuclear extracts from LPS-stimulated cells were pre-incubated with antibody specific for p50 subunit of NF-κB to monitor the size of the NF-κB-DNA complex. cDNA was amplified with specific primers for human IL-1β, glyceraldehyde-3-phosphate-dehydrogenase (GAPDH) as described (5) and A1 (5′-[…]-3′ (SEQ ID NO: 53) and 5′-[…]-3′ (SEQ ID NO:54)). The levels of IL-1β and A1 transcripts normalized to that of GAPDH were expressed relative to those in untreated cells that were considered as baseline. Specificity of the desired PCR products was determined by melting curve analysis. Histograms represent the mean ±S.D. of triplicate analyses.
The NOD2 variants associated with Crohn's disease, R702W, G908R and L1007fsinsC, occur on the same haplotype background, which includes the common P268S polymorphism (Hugot et al., Nature 411:599 [2001]; Ogura et al., Nature 411:603 [2001]). To compare the ability of normal and mutant NOD2 proteins to induce NF-κB activity in response to MDP, the NOD2 proteins were expressed in cells and evaluated in a functional assay. […] The role of NOD2 in the recognition of MDP by primary cells from normal and Crohn's disease patients was next determined. A panel of healthy and Crohn's disease individuals were genotyped for the disease-associated NOD2 alleles and two individuals (one without clinical evidence of disease and one individual with Crohn's disease) who were homozygous for the loss-of-function L1007fsinsC mutation were identified (FIG. 20A). The identification of apparently healthy individuals homozygous for L1007fsinsC is expected in that the penetrance of the L1007fsinsC mutation is not complete (Hugot et al., supra; Ogura et al., supra; Hampe et al., Lancet 357:1925 [2001]; Ahmad et al., Gastroenterology 122:854 [2002]). Peripheral blood mononuclear cells (PBMNC) that are known to express NOD2 were isolated, incubated with MDP or LPS and NF-κB activation was assessed in nuclear extracts by an electrophoretic mobility shift assay (EMSA).

Nod2 = biological target: T1, Nod2 (Homo sapiens, UniProt Q9HC29, R703H); assay: NF-κB reporter assay in HEK293T/HEK293 cells expressing Nod2; format: cell-based
T1 construct: ligated to generate an unique cDNA containing the entire open reading frame of Nod2; expressed in transfected cells; host or cells: HEK293T

P268S/R702W NOD2 = biological target: T2, P268S/R702W NOD2 (Homo sapiens, UniProt Q9HC29, P268S/R702W); assay: NF-κB reporter assay in HEK293T cells expressing P268S/R702W NOD2; format: cell-based; conditions: 100 ng/ml MDP
T2 construct: expressed in transfected cells; host or cells: HEK293T
Procedure: (§3) HEK293T cells were transfected with 0.3 μg of pMX-puro expressing normal Nod2 or mutants carrying P268S (SEQ ID NOs:56 (nucleic acid) and 57 (amino acid), P268S/R702W (SEQ ID NOs: 57 (nucleic acid) and 58 (amino acid)), P268S/G908 (SEQ ID NOs: 60 (nucleic acid) and 61 (amino acid)), P268S/L1007fsinsC (SEQ ID NOs: 54 (nucleic acid) and 55 (amino acid)) or empty plasmid (−). Eight hours post-transfection, 100 ng/ml MDP was added to the cultured cells and at 24 hours post-transfection NF-κB activity was determined as described in FIG. 1A. Values represent the normalized mean data ±S.D. of triplicate cultures. The results shown are representative of three separate experiments.

A1 mRNA = assay: Quantitative RT-PCR of A1 transcripts in PBMNC; format: cell-based, human; conditions: LPS 1 μg/ml, MDP 10 ng/ml
Procedure: as §1, §2
(§4) To further assess NF-κB activation, the mRNA levels of EL-1β and A1, two NF-κB target genes expressed in PBMNC (Cogswell et al., J. Immunol. 153:712 [1994]; Zong et al., Genes Dev. 13:384 [1999]), were evaluated by quantitative real-time polymerase-chain reaction (RT-PCR) analysis. Both IL-1β and A1 mRNA levels were induced by incubation with LPS and MDP in cells from individuals carrying normal or heterozygous NOD2 alleles (FIG. 20C and 20D). […] Thus, PBMNC require the expression of normal NOD2 for their response to MDP but not to LPS.

P268S/L1007fsinsC NOD2 = biological target: T3, P268S/L1007fsinsC NOD2 (Homo sapiens, UniProt Q9HC29, P268S); assay: NF-κB reporter assay in HEK293T cells expressing P268S/L1007fsinsC NOD2; format: cell-based; conditions: 100 ng/ml MDP
T3 construct: expressed in transfected cells; host or cells: HEK293T
Procedure: as §3

P268S/G908R NOD2 = biological target: T4, P268S/G908R NOD2 (Homo sapiens, UniProt Q9HC29, G908R/P268S); assay: NF-κB reporter assay in HEK293T cells expressing P268S/G908R NOD2; format: cell-based; conditions: 100 ng/ml MDP
T4 construct: expressed in transfected cells; host or cells: HEK293T
Procedure: as §3

P268S NOD2 = biological target: T5, P268S NOD2 (Homo sapiens, UniProt Q9HC29, P268S); assay: NF-κB reporter assay in HEK293T cells expressing P268S NOD2; format: cell-based; conditions: 100 ng/ml MDP
T5 construct: expressed in transfected cells; host or cells: HEK293T
Procedure: as §3

IL-1β mRNA = assay: Quantitative RT-PCR of IL-1β transcripts in PBMNC; format: cell-based, human; conditions: normal or heterozygous NOD2 alleles, LPS 1 μg/ml, MDP 10 ng/ml
Procedure: as §1, §2, §4

T1 sequence (Q9HC29 whole entry R703H): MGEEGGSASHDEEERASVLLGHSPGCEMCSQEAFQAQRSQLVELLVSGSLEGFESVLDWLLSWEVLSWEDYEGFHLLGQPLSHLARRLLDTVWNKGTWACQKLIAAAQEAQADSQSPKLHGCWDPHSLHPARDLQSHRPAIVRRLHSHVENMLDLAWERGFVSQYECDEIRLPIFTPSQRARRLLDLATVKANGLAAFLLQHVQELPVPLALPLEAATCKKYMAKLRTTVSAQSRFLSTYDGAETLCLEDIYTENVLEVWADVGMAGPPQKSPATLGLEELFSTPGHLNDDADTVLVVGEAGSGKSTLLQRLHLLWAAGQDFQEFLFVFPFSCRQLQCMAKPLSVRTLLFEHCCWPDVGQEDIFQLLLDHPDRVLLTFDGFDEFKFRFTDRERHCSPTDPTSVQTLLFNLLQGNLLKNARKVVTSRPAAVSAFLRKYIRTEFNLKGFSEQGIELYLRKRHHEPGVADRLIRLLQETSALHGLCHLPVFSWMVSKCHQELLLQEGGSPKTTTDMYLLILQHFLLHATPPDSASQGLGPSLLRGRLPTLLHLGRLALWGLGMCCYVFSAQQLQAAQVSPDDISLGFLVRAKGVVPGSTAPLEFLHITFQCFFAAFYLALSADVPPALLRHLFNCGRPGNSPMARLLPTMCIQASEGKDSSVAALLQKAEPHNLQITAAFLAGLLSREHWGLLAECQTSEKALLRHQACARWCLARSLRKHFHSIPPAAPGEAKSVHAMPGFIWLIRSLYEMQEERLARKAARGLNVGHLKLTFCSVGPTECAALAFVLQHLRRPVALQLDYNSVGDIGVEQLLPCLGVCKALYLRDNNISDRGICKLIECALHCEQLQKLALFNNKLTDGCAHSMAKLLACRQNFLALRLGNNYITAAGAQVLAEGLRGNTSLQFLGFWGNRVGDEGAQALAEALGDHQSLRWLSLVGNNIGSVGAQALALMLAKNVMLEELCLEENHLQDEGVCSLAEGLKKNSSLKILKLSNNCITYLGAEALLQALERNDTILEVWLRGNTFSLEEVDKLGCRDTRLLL
T2 sequence (Q9HC29 whole entry P268S/R702W): as the sequence (Q9HC29 whole entry R703H) above, with P268S, R702W, H703R counted along it
T3 sequence (Q9HC29 with tags, fused parts or gaps P268S): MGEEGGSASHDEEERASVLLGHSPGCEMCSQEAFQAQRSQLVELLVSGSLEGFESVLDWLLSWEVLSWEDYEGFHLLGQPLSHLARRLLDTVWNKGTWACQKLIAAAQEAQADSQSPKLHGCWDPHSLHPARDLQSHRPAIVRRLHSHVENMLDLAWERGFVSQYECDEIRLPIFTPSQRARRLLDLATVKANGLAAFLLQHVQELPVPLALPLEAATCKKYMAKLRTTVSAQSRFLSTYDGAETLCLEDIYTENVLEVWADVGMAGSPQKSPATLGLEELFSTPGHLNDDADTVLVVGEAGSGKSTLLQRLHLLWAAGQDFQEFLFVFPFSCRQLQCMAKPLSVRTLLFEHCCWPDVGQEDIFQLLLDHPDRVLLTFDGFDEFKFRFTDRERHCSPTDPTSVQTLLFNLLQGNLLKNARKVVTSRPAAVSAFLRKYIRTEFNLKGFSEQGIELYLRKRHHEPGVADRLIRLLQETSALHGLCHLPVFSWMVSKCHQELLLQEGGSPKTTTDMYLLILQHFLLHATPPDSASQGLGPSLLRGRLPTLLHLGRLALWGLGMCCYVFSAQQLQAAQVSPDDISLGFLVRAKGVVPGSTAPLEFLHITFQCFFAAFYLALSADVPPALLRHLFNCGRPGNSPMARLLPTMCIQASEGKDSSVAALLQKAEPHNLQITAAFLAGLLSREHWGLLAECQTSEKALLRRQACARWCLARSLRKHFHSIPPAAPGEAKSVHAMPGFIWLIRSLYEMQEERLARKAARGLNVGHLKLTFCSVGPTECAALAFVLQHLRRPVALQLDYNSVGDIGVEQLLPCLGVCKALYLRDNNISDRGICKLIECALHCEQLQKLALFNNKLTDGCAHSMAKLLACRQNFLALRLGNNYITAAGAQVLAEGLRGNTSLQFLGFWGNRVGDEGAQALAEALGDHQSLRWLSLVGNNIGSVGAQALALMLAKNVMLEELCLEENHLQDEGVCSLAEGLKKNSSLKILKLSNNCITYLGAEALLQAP
T5 sequence (Q9HC29 whole entry P268S): as the sequence (Q9HC29 whole entry R703H) above, with P268S, H703R counted along it
T4 sequence (Q9HC29 whole entry P268S/G908R): as the sequence (Q9HC29 whole entry R703H) above, with P268S, H703R, G908R counted along it

## CC(=O)N[C@@H]1[C@@H](O[C@H](C)C(=O)N[C@@H](C)C(=O)N[C@H](CCC(=O)O)C(N)=O)[C@H](O)[C@@H](CO)O[C@H]1O [MDP, MurNAc-L-Ala-D-isoGln]
NF-κB; PBMNC from individuals carrying normal or heterozygous NOD2 alleles
  induction of the NF-κB-DNA complex (EMSA): resulted in induction of the NF-κB-DNA complex
NF-κB
  response of PBMNC (NF-κB-DNA complex, EMSA): but not to MDP
NF-κB; listed as muramyl dipeptide
  response of PBMNC (NF-κB-DNA complex, EMSA): defective in their response
Nod2; HEK293T cells, 66 ng pMX-puro-NOD2 (FIG. 18B)
  NOD2-dependent stimulation of NF-κB by synthetic muropeptides: induced potent stimulation of NOD2; also recorded: induced Nod2-dependent activation of NF-κB
Nod2; HEK293T cells, 100 ng/ml MDP
  NF-κB activation in response to MDP, normal NOD2: induced similar levels of NF-κB activation
Nod2; HEK293 cells, 0.3 ng pcDNA3-Nod2, MDP 100 ng/ml, sBLP 1000 ng/ml (FIG. 18D)
  stimulation of NOD2 activity: stimulated NOD2 activity
P268S/R702W NOD2
  NF-κB activation in response to MDP, P268S/R702W variant compared to normal NOD2: greatly reduced levels of NF-κB activation; also recorded: retained some ability to respond
A1 mRNA; homozygous for L1007fsinsC
  A1 mRNA levels: but not MDP
A1 mRNA; normal or heterozygous NOD2 alleles
  A1 mRNA levels: induced
P268S/L1007fsinsC NOD2
  NF-κB activation in response to MDP, P268S/L1007fsinsC variant compared to normal NOD2: greatly reduced levels of NF-κB activation; also recorded: did not respond at all
P268S/G908R NOD2
  NF-κB activation in response to MDP, P268S/G908R variant compared to normal NOD2: greatly reduced levels of NF-κB activation
P268S NOD2
  NF-κB activation in response to MDP, P268S NOD2: induced similar levels of NF-κB activation
IL-1β mRNA
  IL-1β mRNA levels: induced
